{
  "source": "paper PMC6079455",
  "about": "“Discovery of Novel Caeridins from the Skin Secretion of the Australian White's Tree Frog, Litoria caerulea” (International Journal of Genomics, 2018)",
  "key": {"S. aureus NCTC10788": {"test_system": "S. aureus NCTC10788", "assay": "Antimicrobial test (broth microdilution)", "format": "cell-based, Staphylococcus aureus", "description": "(§1) The antimicrobial activities were tested by the broth microdilution method and evaluated by the determination of MIC values against different tested microorganisms, the Gram-positive bacteria, S. aureus (NCTC 10788), E. faecalis (NCTC12697), and MRSA (NCTC 12493); the Gram-negative bacterium, E. coli (NCTC 10418); and the yeast, C. albicans (NCYC 1467). The microorganisms were cultured to their log phase in MHB and diluted to 5 × 10^5 CFU/ml then subsequently treated with peptide solutions of gradient concentrations. After incubation at 37°C overnight, the growth of microorganisms was detected at a wavelength of 550 nm using a Synergy HT plate reader (Biolise BioTek ELx808, Winooski, VT, USA). The MICs were determined as the lowest concentration of peptide where […]."}, "E. faecalis NCTC12697": {"test_system": "E. faecalis NCTC12697", "assay": "Antimicrobial test (broth microdilution)", "format": "cell-based, Enterococcus faecalis", "description": "as §1"}, "S. aureus": {"test_system": "S. aureus", "assay": "Membrane permeability on S. aureus (SYTOX Green)", "format": "cell-based, Staphylococcus aureus", "conditions": "2 h, 37°C, 1 × 10^8 CFU/ml, relative to 70% isopropanol", "description": "The cell membrane permeability of S. aureus was tested with SYTOX Green Nucleic Acid Stain (Life Technologies, Carlsbad, CA, USA). The log-phase S. aureus was pelleted and suspended in 5% TSB in 0.85% NaCl solution to achieve 1 × 10^8 CFU/ml cells which was then treated with peptide solutions at 37°C for 2 h. The maximum membrane-compromised S. aureus was produced by 70% isopropanol treatment. Subsequently, cells were mixed with 5 μM SYTOX Green stain and incubated in the dark for 10 min. The fluorescence was measured in a 37°C Synergy HT plate reader (Biolise BioTek ELx808, Winooski, VT, USA) at excitation and emission wavelengths of 480 nm and 528 nm, respectively. The membrane permeability was calculated as (1) Membrane permeability%=F−F0/F1−F0×100%, where F represents the processed fluorescence intensity with peptide treatments, F0 represents the processed fluorescence intensity of untreated S. aureus, and F1 represents the processed fluorescence intensity in the maximum membrane-compromised S. aureus (70% isopropanol-treated). The fluorescence intensities of background were subtracted prior to calculation."}, "E. coli": {"test_system": "E. coli", "assay": "Membrane permeability on E. coli (ONPG / β-galactosidase)", "format": "cell-based, Escherichia coli", "conditions": "ONPG hydrolysis, absorbance 420 nm, 0-30 min, 37°C, 1 × 10^8 CFU/ml, PBS pH 7.4", "description": "The membrane permeabilsation of E.coli was determined by measuring the release of β-galactosidase activity from E. coli into the culture medium with ONPG as the substrate. The log-phase E. coli was grown in MHB medium containing 2% lactose at 37°C, and the cells were pelleted. The cell pellets were suspended in 10 mM PBS (pH 7.4) containing 1.5 mM ONPG and diluted to 1 × 10^8 CFU/ml. Aliquots of cells were incubated with different concentrations of peptides at 37°C. Permeabilisation was measured at 420 nm every 2 min from 0 to 30 min, which reflects ONPG influx into the cells working as an indicator of the permeability of the tested peptides."}, "[1]": {"test_system": "human microvascular endothelial cell line HMEC-1", "assay": "Membrane permeabilisation of HMEC-1 (LDH release)", "format": "cell-based", "conditions": "24 h; for LDH release from HMEC-1: relative to lysis buffer", "description": "The membrane permeabilisation of the human microvascular endothelial cell line, HMEC-1, was evaluated using the Pierce LDH Cytotoxicity Assay Kit (Thermo Fisher Scientific, San Francisco, CA, USA). HMEC-1 cells were cultured in MCDB-131 medium (Life Technology, Paisley, UK) with 10% FBS, 10 ng/ml epidermal growth factor (EGF) (Life Technology, Paisley, UK), 10 mM L-glutamine (Life Technology, Paisley, UK), and 1% penicillin-streptomycin (Sigma-Aldrich, St. Louise, MO, USA), at 37°C under 5% CO2. Cells were seeded in a 96-well plate at 5000 cells per well and cultured overnight to 80% confluency. Then, the cells were treated with different peptide solutions of gradient concentrations from 10^−7 M to 10^−4 M for 24 h at 37°C, 5% CO2, and H2O-treated cells were made as the spontaneous LDH release control. Lysis buffer was added to cells and incubated for 45 min at 37°C, 5% CO2, to produce the lysis buffer-treated cells which were referred to as maximum LDH release control. Then 50 μl of each sample supernatant was transferred to a 96-well flat-bottom plate in triplicate wells, to which 50 μl of reaction mixture was added, incubated, and protected from light at room temperature for 30 min. After addition of 50 μl Stop Solution to each sample well and removal of bubbles present in sample wells, the absorbance at 490 nm and 680 nm was measured. The absorbance values at 680 nm were subtracted from the absorbance values at 490 nm before calculation of the level of LDH release (cytotoxicity). The level of LDH release was calculated as (2) LDH release %=L−L0/L1−L0×100%, where L refers to sample-treated LDH activity, L0 to spontaneous (H2O-treated) LDH activity, and L1 to maximum (lysis buffer-treated) LDH activity.\nData analysis was performed using one-way analysis of variance followed by Dunnett's multiple comparison tests with maximum LDH release control in GraphPad Prism (Version 6.0; GraphPad Software Inc., San Diego, CA, USA)."}, "C. albicans NCYC1467": {"test_system": "C. albicans NCYC1467", "assay": "Antimicrobial test (broth microdilution)", "format": "cell-based, Candida albicans", "description": "as §1"}, "[2]": {"conditions": "MHB, 5 × 10^5 CFU/ml, 37°C overnight, 550 nm"}},
  "note": "Ends that are not written are not given here.",
  "data": [
    {"substance": "GLFDIVGKLLGGLGL-NH2 [Caeridin-a1]", "values": [
      {"measurement": "MBC", "setting": "S. aureus NCTC10788", "result": 16, "unit": "µM"},
      {"measurement": "MIC", "setting": "S. aureus NCTC10788; [2]", "result": 8, "unit": "µM"},
      {"measurement": "MBC", "setting": "E. faecalis NCTC12697", "result": 64, "unit": "µM"},
      {"measurement": "MIC", "setting": "E. faecalis NCTC12697; [2]", "result": 32, "unit": "µM"},
      {"measurement": "membrane permeability of S. aureus at MBC", "setting": "S. aureus; peptide at its MBC", "result": "massively compromised"},
      {"measurement": "membrane permeability of S. aureus at MIC", "setting": "S. aureus; peptide at its MIC", "result": "remained intact"},
      {"measurement": "membrane permeabilisation of E. coli at MIC and MBC", "setting": "E. coli", "result": "induced inner membrane permeabilisation within 30 min"},
      {"measurement": "LDH release from HMEC-1", "setting": "[1]; 10 μM", "result": "approximately 10%"},
      {"measurement": "LDH release from HMEC-1", "setting": "[1]; 100 μM", "result": "about 50%"},
      {"measurement": "cytotoxicity to HMEC-1 cells", "setting": "[1]; 100 μM, LDH release", "result": "significant cytotoxicity"},
      {"measurement": "MFC", "setting": "C. albicans NCYC1467", "result": 64, "unit": "µM"},
      {"measurement": "MIC", "setting": "C. albicans NCYC1467; [2]", "result": 32, "unit": "µM"}
    ]}
  ]
}
